Experimental data published in patent US7579468B2, “Methods of modulating neurotrophin-mediated activity” (PainCeptor Pharma Corporation, priority 2005, dated 2009).
Entries after “also recorded” stand apart in the source; their conditions may differ.

Experiments:
[1] = test system: Male Sprague-Dawley rats; assay: Spared Nerve Injury (SNI) model of neuropathic pain; assay type: in vivo, rat; conditions: Von Frey filaments, 90 min post-treatment, Compound 11 3 and 10 mg/kg i.p., Compound 107 20 mg/kg i.p.
Description: The Spared Nerve Injury (SNI) model (Decosterd et al., Pain 2000; 87: 149) was used to induce chronic neuropathic pain. Male Sprague-Dawley rats were anesthetized with isoflurane, and two of the three terminal branches of the sciatic nerve (tibial and common peroneal nerves) were transected, leaving the remaining sural nerve intact. Animals develop thermal and mechanical hyperalgesia and allodynia, as well as spontaneous pain or dysesthesia that last month after the nerve injury.
Mechanical allodynia testing: Pre- and post-injury baselines as well as post-treatment values (vehicle or compound-treated animals) for mechanical allodynia were evaluated using Von Frey filaments (Stoelting, Wood Dale, Ill., USA) with varying stiffness. […] The mean and standard error of the mean (SEM) were determined for each paw in each treatment group (ipsilateral/injured paw and contralateral/non-injured paw). […] Effects of compounds were evaluated two weeks after the injury. Compound or vehicle was administered (i.p. or s.c.) and effects on mechanical allodynia were measured at different time points after dosing (e.g., 30, 60 and 90 min.).
(§1) Data analysis: Statistical analyses were conducted using Prism™ 4.01 (GraphPad, San Diego, Calif., USA). Mechanical hypersensitivity of the injured paw was determined by comparing contralateral to ipsilateral paw values within the vehicle group at each time point. […]

[2] = test system: Male Sprague-Dawley rats; assay: Formalin Model - model of acute tonic pain; assay type: in vivo, rat; conditions: 6.5, 12.5 and 25 mg/kg i.p., Phase II
Protocol: Male Sprague-Dawley rats were given a subcutaneous injection of 50 μl of 2.5% formalin into the plantar surface of one hindpaw using a 27 gauge syringe needle, and nociceptive responses were measured for the next 60 min. Compound or vehicle was administered (i.p. or s.c.) 15-45 minutes prior to the formalin injection. A nociceptive score was determined for each 5 min block by measuring the amount of time spent in each of four behavioral categories: 0, the injected hindpaw is indistinguishable from that of the contralateral paw; 1, the injected paw has little or no weight placed on it; 2, the injected paw is elevated and is not in contact with any surface; 3, the injected paw is licked, bitten, or shaken. A weighted nociceptive score, ranging from 0 to 3 was calculated by multiplying the time spent in each category by the category weight, summing these products, and dividing by the total time for each 5 min block of time (Coderre et al., Pain 1993; 54: 43). On the basis of the resulting response patterns, 2 phases of nociceptive behaviour were identified and scored: first phase (P1; 0-5 min) and second phase (P2; 11-40 min).
Statistical analysis was performed using Prism™ 4.01 software package (GraphPad, San Diego, Calif., USA). […]

[3] = test system: PC12 cells; assay: NGF-induced neurite outgrowth in PC12 cells; assay type: cell-based, rat; conditions: 4 days of exposure to NGF
Protocol: This assay was run as a further functional marker of NGF antagonism and takes advantage of the differentiation of PC12 cells (neurite outgrowth) induced by NGF. Cultures of PC12 cells were grown on Terasaki plates pre-coated with poly-D-lysine. Cells were exposed to NGF (1-50 (preferably 5) ng/ml) to induce neurite outgrowth as described elsewhere [L A Greene & A S Tischler, Establishment of a noradrenergic clonal line of rat adrenal pheochromocytoma cells which respond to nerve growth factor, Proc Natl Acad Sci USA. 1976 July; 73(7): 2424-2428]. In addition to NGF, cells were exposed to varying concentration of the compounds or vehicle. Following 4 days of exposure to NGF in the presence or absence of compound, neurite outgrowth was quantified. A neurite was scored if its caliber from origin to terminal was approximately the same and the length was equal to or greater than 1.5 the cell body diameter. The number of neurite bearing cells per total number of viable cells was calculated for each condition; the number of cells with neurites in the presence of NGF (without compound exposure) was considered to represent maximal (100%) outgrowth, to which the inhibitory effect of compounds of the invention on NGF-induced outgrowth was compared.

[4] = test system: Male Sprague-Dawley rats; assay: Chung or Spinal Nerve Ligation (SNL) model of neuropathic pain; assay type: in vivo, rat; conditions: Von Frey filaments, 90 min post-treatment, 5 and 10 mg/kg i.p.
Description: The Spinal Nerve Ligation (SNL) model (Kim and Chung, Pain 1992; 50: 355) was used to induce chronic neuropathic pain. Male Sprague-Dawley rats (Harlan, Indianapolis, Ind., USA) were anesthetized with isoflurane, the left […] was removed, and the L5 and L6 spinal nerves were tightly ligated with 6-0 silk suture. The wound was then closed with internal sutures and external staples.
Mechanical allodynia testing: Pre- and post-injury baselines as well as post-treatment values (vehicle or compound-treated animals) for non-noxious mechanical sensitivity were evaluated using 8 Semmes-Weinstein filaments (Stoelting, Wood Dale, Ill., USA) with varying stiffness according to the up-down method (Chaplan et al., J Neurosci Methods 1994; 53: 55). […] The mean and standard error of the mean (SEM) were determined for each paw in each treatment group. […] Effects of compounds were evaluated two weeks after the injury. Compound or vehicle was administered (i.p. or s.c.) and effects on mechanical allodynia were measured at different time points after dosing (e.g., 30, 60 and 90 min.). […]
as §1, with “point. Data were analyzed using the Mann-Whitney test.” for “point.”

## CC(=O)Nc1cc2c3c(cc(NC(C)=O)cc3c1)C(=O)N(CCCC(=O)O)C2=O [Compound 11, 4-(5,8-Bis-acetylamino-1,3-dioxo-1H,3H-benzo[de]isoquinolin-2-yl)-butyric acid]
[1]
  Effect on mechanical allodynia in the SNI model: significant dose-dependent reversal of the mechanical allodynia; also recorded: significant antinociceptive effects
[2]
  Antinociceptive effect in the Formalin Test: significant dose-dependent antinociceptive effect; also recorded: significant antinociceptive effects
[3]
  Inhibition of NGF-induced neurite outgrowth: effectively inhibit neurite outgrowth induced by NGF
[4]
  Effect on mechanical allodynia in the SNL model: significant dose-dependent reversal of the mechanical allodynia; also recorded: significant antinociceptive effects
